# What was measured:
# [1] = target: T1, Lanosterol synthase (Homo sapiens) (UniProt P48449); test: Inhibitory activity against lanosteral synthase at 0.4 umol/assay; set-up: scale not given: the % may be the effect or the level left
# T1 sequence (whole entry): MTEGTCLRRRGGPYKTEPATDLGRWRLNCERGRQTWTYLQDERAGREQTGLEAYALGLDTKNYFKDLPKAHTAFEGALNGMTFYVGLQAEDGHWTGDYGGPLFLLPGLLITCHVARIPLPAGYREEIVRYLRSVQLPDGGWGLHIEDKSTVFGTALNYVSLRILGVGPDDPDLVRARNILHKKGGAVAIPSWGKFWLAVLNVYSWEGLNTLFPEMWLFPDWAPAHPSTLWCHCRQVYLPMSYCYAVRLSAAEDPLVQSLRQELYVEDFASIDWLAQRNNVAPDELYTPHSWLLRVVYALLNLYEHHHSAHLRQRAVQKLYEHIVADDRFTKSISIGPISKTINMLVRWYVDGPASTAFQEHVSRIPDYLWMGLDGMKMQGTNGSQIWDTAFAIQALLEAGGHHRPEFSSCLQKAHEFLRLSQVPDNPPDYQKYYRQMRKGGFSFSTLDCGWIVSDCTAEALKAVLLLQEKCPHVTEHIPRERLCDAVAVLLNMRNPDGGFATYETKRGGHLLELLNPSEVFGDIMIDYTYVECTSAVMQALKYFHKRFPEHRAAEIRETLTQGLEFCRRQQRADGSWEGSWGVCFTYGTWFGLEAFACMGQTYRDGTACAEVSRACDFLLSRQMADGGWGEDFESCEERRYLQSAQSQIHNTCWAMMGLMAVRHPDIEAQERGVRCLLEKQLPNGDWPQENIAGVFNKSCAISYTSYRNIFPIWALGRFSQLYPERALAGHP
# [2] = target: T1, Lanosterol synthase (Homo sapiens); test: Inhibitory activity against lanosteral synthase at 0.5 umol/assay; n.d. = not detected
# [3] = target: T1, Lanosterol synthase (Homo sapiens); test: Inhibitory activity against lanosteral synthase at 0.25 umol/assay; n.d. = not detected
# [4] = target: T1, Lanosterol synthase (Homo sapiens); test: Inhibitory activity against lanosteral synthase at 0.5 umol/assay; set-up: scale not given: the % may be the effect or the level left
# [5] = target: T1, Lanosterol synthase (Homo sapiens); test: Inhibitory activity against lanosteral synthase at 0.25 umol/assay; set-up: scale not given: the % may be the effect or the level left
# [6] = target: Beta-secretase 1 (Homo sapiens, UniProt P56817); test: Binding affinity against human brain memapsin 2; format: tissue-based
# Beta-secretase 1, sequence (P56817 whole entry): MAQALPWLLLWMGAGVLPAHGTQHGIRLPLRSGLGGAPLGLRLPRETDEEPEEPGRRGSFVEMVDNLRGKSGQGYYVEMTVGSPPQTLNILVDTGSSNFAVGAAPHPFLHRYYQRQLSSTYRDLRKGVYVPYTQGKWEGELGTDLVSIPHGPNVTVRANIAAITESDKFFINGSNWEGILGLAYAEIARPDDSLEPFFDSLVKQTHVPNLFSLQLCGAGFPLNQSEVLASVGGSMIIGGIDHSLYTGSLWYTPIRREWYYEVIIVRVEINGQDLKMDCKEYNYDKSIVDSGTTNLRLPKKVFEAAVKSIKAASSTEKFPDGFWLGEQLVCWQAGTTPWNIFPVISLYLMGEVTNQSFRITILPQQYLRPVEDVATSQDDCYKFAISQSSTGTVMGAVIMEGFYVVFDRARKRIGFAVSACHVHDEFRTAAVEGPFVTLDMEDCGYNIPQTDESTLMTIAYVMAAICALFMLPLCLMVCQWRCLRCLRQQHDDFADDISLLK
Activity [4],Activity [5],Compound,also measured
38%,22%,CC/C=C\C/C=C\C/C=C\CCCCCCCC(=O)OCC(CO[C@@H]1OC(CO[C@H]2OC(CO)[C@H](O)[C@@H](O)C2O)[C@H](O)[C@@H](O)C1O)OC(=O)CCCCCCCCCCCCC (stereo partly specified),
45%,18%,"CC/C=C\C/C=C\C/C=C\CCCCCCCC(=O)OCC(CO[C@@H]1O[C@H](CO[C@H]2O[C@H](CO)[C@H](O)C(O)[C@H]2O)[C@H](O)C(O)[C@H]1O)OC(=O)CCCCCCC/C=C\C/C=C\C/C=C\CC (single isomer, unassigned; 2d)",
24%,4%,CCCCCC/C=C\CCCCCCCC(=O)OCC(CO[C@@H]1O[C@H](CO[C@H]2O[C@H](CO)[C@H](O)[C@H](O)[C@H]2O)[C@H](O)[C@H](O)[C@H]1O)OC(=O)CCCCCCC/C=C\CCCCCC (stereo partly specified),
29%,7%,"CC/C=C\C/C=C\C/C=C\CCCCCCCC(=O)OC(COC(=O)CCCCCCC/C=C/CCCCCCCC)CO[C@@H]1O[C@H](CO[C@H]2O[C@H](CO)[C@H](O)C(O)[C@H]2O)[C@H](O)C(O)[C@H]1O (single isomer, unassigned; 2i)",
31%,8%,"CC/C=C\C/C=C\C/C=C\CCCCCCCC(=O)OCC(CO[C@@H]1O[C@H](CO[C@H]2O[C@H](CO)[C@H](O)C(O)[C@H]2O)[C@H](O)C(O)[C@H]1O)OC(=O)CCCCCCC/C=C/CCCCCCCC (single isomer, unassigned)",
40%,9%,"CC/C=C\C/C=C\C/C=C\CCCCCCCC(=O)OC(COC(=O)CCCCCCC/C=C/CCCCCCCC)CO[C@@H]1O[C@H](CO[C@H]2O[C@H](CO)[C@H](O)C(O)[C@H]2O)[C@H](O)C(O)[C@H]1O (single isomer, unassigned; 2f)",
26%,5%,"CC/C=C\C/C=C\C/C=C\CCCCCCCC(=O)OCC(CO[C@@H]1O[C@H](CO[C@H]2O[C@H](CO)[C@H](O)C(O)[C@H]2O)[C@H](O)C(O)[C@H]1O)OC(=O)CCCCCCC/C=C\CCCCCC (single isomer, unassigned; 2l)",
26%,,"CC/C=C\C/C=C\C/C=C\CCCCCCCC(=O)OCC(CO[C@@H]1O[C@H](CO[C@H]2O[C@H](CO)[C@H](O)C(O)[C@H]2O)[C@H](O)C(O)[C@H]1O)OC(=O)CCCCCCC/C=C\C/C=C\C/C=C\CC (single isomer, unassigned; 2k)",Activity [3]: Not detected
20%,,CC/C=C\C/C=C\C/C=C\CCCCCCCC(=O)OC(COC(=O)CCCCCCC/C=C\CCCCCC)CO[C@@H]1O[C@H](CO[C@H]2O[C@H](CO)[C@H](O)[C@H](O)[C@H]2O)[C@H](O)[C@H](O)[C@H]1O (stereo partly specified),Activity [3]: Not detected
27%,3%,"CC/C=C\C/C=C\C/C=C\CCCCCCCC(=O)OCC(CO[C@@H]1O[C@H](CO[C@H]2O[C@H](CO)[C@H](O)C(O)[C@H]2O)[C@H](O)C(O)[C@H]1O)OC(=O)CCCCCCC/C=C\CCCCCC (single isomer, unassigned; 2j)",

# Continued, compound first:
Compound,Activity [4],Activity [5],also measured
"CC/C=C\C/C=C\C/C=C\CCCCCCCC(=O)OC(COC(=O)CCCCCCC/C=C\CCCCCC)CO[C@@H]1O[C@H](CO)[C@H](O)C(O)[C@H]1O (single isomer, unassigned)",,,Activity [1]: 16%
"CC/C=C\C/C=C\C/C=C\CCCCCCCC(=O)OCC(CO[C@@H]1O[C@H](CO)[C@H](O)C(O)[C@H]1O)OC(=O)CCCCCCC/C=C\CCCCCCCC (single isomer, unassigned)",,,Activity [1]: 19%
OCC(O)CO[C@@H]1O[C@H](CO[C@H]2O[C@H](CO)[C@H](O)[C@H](O)[C@H]2O)[C@H](O)[C@H](O)[C@H]1O (stereo partly specified),,,Activity [2]: Not detected; Activity [3]: Not detected
CC/C=C\C/C=C\C/C=C\CCCCCCCC(=O)OC(COC(=O)CCCCCCCCCCCCC)CO[C@@H]1OC(CO)[C@H](O)[C@@H](O)C1O (stereo partly specified),,,Activity [1]: 23%
C=CCNC(=O)C[C@H](NC(=O)C(NC(=O)OCC=C)C(C)C)C(=O)N[C@@H](CC(C)C)[C@@H](O)C[C@@H](C)C(=O)N[C@H](C(=O)NCc1ccccc1)C(C)C (stereo partly specified),,,Ki [6]: 26.6 nM
CCCCCC/C=C\CCCCCCCC(=O)OCC(CO[C@@H]1O[C@H](CO[C@H]2O[C@H](CO)[C@H](O)[C@H](O)[C@H]2O)[C@H](O)[C@H](O)[C@H]1O)OC(=O)CCCCCCC/C=C/CCCCCCCC (stereo partly specified),21%,4%,
"CCCCCCCC/C=C/CCCCCCCC(=O)OCC(CO[C@@H]1O[C@H](CO[C@H]2O[C@H](CO)[C@H](O)C(O)[C@H]2O)[C@H](O)C(O)[C@H]1O)OC(=O)CCCCCCC/C=C/CCCCCCCC (single isomer, unassigned)",57%,42%,
CCCCCC/C=C\CCCCCCCC(=O)OC(COC(=O)CCCCCCCCCCCCC)CO[C@@H]1OC(CO[C@H]2OC(CO)[C@H](O)[C@@H](O)C2O)[C@H](O)[C@@H](O)C1O (stereo partly specified),45%,35%,
"CCCCCCCCCCCCCC(=O)OCC(CO[C@@H]1O[C@H](CO[C@H]2O[C@H](CO)[C@H](O)C(O)[C@H]2O)[C@H](O)C(O)[C@H]1O)OC(=O)CCCCCCCCCCCCC (single isomer, unassigned)",72%,51%,
"CCCCCC/C=C/CCCCCCCC(=O)OC(COC(=O)CCCCCCC/C=C/CCCCCCCC)CO[C@@H]1O[C@H](COC2O[C@H](CO)[C@H](O)C(O)[C@H]2O)[C@H](O)C(O)[C@H]1O (single isomer, unassigned)",46%,24%,

# — ChEMBL document CHEMBL1145146, “Synthesis of digalactosyl diacylglycerols and their structure-inhibitory activity on human lanosterol synthase” (Bioorg Med Chem Lett, 2005)
